Test results taken from PMC9965125, “New NSAID Conjugates as Potent and Selective COX-2 Inhibitors: Synthesis, Molecular Modeling and Biological Investigation” (Molecules, 2023).

How the values were obtained:
[1] = tested on: acetic acid-induced abdominal writhing; assay: acetic acid-induced abdominal writhing assay (peripheral analgesic); type: in vivo, mice; settings: for % Inhibition/Protection / Writing Reflex ± SE: 10 mg/kg indomethacin mol equivalent i.p.; for Potency: % inhibition/protection compared to indomethacin; for Writing Reflex ± SE: number of writhing counted for 30 min
Protocol: Peripheral analgesic testing
Peripheral analgesic activity was measured by the standard acetic acid-induced writhing […]
One hour after intraperitoneally (i,p.) administration of 10 mg kg−1 (mice body weight) […]
distilled/sterile water by the aid of two drops of Tween 80, each mouse was injected with 0.1 ml of 1% acetic acid solution i.p. The control group animals were given sterile/distilled water only with few drops of Tween 80. Starting 5 min after the acetic acid injection, the number of muscular contractions in each mouse was counted for 30 min. A significant reduction in the number of writhing by any test compound as compared to control animals was considered as a positive analgesic response. Percentage protection was calculated according to equ. (3), where n stands for the average number of writhing in the control group and n' is the average number of writhing in the treated group. The % potency was calculated by equ. (4) (Table 2).
% Inhibition/protection = n−n′ x100 … . (3)

[2] = tested on: hot plate latency; assay: hot plate assay (central analgesic); type: in vivo, mice; settings: for % Protection / Latency Period ± SE: 10 mg/kg indomethacin mol equivalent i.p.; for Latency Period ± SE: cutoff 15 sec; for Potency: at 120 min compared to indomethacin
Protocol: The % potency was calculated by equ. (4) (Table 2). […]
% Potency = % protection of the tested compound x 100 ……. (4) […]
Central analgesic (hot plate) testing
The standard hot plate technique was undertaken by in vivo standard hot plate test [ 1,2]. […]
by placing them on a hot plate maintained at 55 ± 1 °C, 30 min. […]
suspended in sterile/distilled water by the ai d of two drops of Tween 80, and recording the reaction time in seconds for forepaw licking or jumping. The control group animals were given sterile/distilled water only with few drops of Tween 80. The maximum cutoff time was chosen as 15 sec. to prevent tissue damage. Response latencies were measured 30, 60, 90 and 120 min. after the application. The % protection was calculated by equ. ( 5) where, T1, T0 are the latency time mean of the tested compound and control group, respectively (Table 3).

[3] = tested on: carrageenan induced paw edema; assay: carrageenan-induced rat paw edema; type: in vivo; settings: for % Potency: % inhibition of edema thickness relative to indomethacin at 3 h
Protocol: Anti-inflammatory activity screening
The anti-inflammatory activity of the tested compounds was determined in-vivo by the acute carrageenan induced paw edema standard method in rats. Adult Wister rats of either sex (pregnant female animals were excluded) weighing 120–150 g were divided into 19 groups of 6 animals each. The tested compounds dissolved in DMSO, at a dose of 10 mg kg-1 (rat body […]
inflammation. The control group was given DMSO only. Paw edema was induced by subcutaneous injection of freshly prepared 1% solution of carrageenan in saline (0.9%, 0.1 ml per rat) into subplantar tissue of the right hind paw of rats. The thickness of the paw was measured (in mm) after successive time intervals (1, 2, 3, 4 and 24 h) and compared with the initial hind paw thickness of each rat for determining the edema thickness. Data were collected, checked, revised and analyzed (SPSS 16). Quantitative variables from normal distribution were expressed as means ± SE “standard error”. The anti-inflammatory activity was expressed as percentage inhibition of edema thickness in treated animals in comparison with the control group according to eqn. (1) […]
% Inhibition of edema= Vc-Vt x 100 … .. (1)
Where, Vc and Vt are the means of edema paw thickness for the control and tested compound treated animal groups, respectively.
The potency of the tested compounds was expressed as % inhibition of edema thickness […]
% Potency = % inhibition of edema for the tested compound treated group x 100 … . (2)

[4] = tested on: gastric mucosa; settings: both, albino, mouse, in vivo, po, 10 mg/kg, 3 days
Protocol: The ulcerogenic liability was determined in albino mice obeying the standard method.
Animals of either sex (pregnant females were excluded) weighing 20 –25 g were divided into 8 groups of 6 animals each. The animals fasted 18 h before drug administration.
80 administered orally for three successive days to fasted animals at a dose of 10 mg kg-1 (animal […]
The control group animals were given water only with few drops of Tween 80. The animals were sacrificed by cervical dislocation and the stomach was removed, opened along the greater curvature and rinsed with saline. The gastric mucosa was examined with a magnifying lens (10x) for the presence of lesions and ero sions. The ulcer index was calculated (Table 4) and the degree of ulcerogenic effect was expressed in terms of.
1. The percentage incidence of ulcers divided by 10.
2. Average number of ulcers per stomach.
3. Average severity of ulcers.
The ulcer index is the value that resulted from the sum of the above three values. […]

[5] = 1 h, 10 mg/kg indomethacin mol equivalent i.p.
[6] = 2 h, 10 mg/kg indomethacin mol equivalent i.p.
[7] = 4 h, 10 mg/kg indomethacin mol equivalent i.p.
[8] = 24 h, 10 mg/kg indomethacin mol equivalent i.p.
[9] = 24 h, 10 mg/kg indomethacin mol equivalent i.p., 10 mg/kg

SMILES | % Inhibition/Protection [1] [%] | Potency [1] [%] | Writing Reflex ± SE [1] | % Protection ([2]; after 30 min) [%] | Latency Period ± SE ([2]; after 30 min) [s] | % Protection ([2]; after 60 min) [%] | Latency Period ± SE ([2]; after 60 min) [s] | % Protection ([2]; after 90 min) [%] | Latency Period ± SE ([2]; after 90 min) [s] | % Protection ([2]; after 120 min) [%] | Latency Period ± SE ([2]; after 120 min) [s] | Potency [2] | % Inhibition of Edema ± Standard Error [3, 5] [%] | % Inhibition of Edema ± Standard Error [3, 6] [%] | % Inhibition of Edema ± Standard Error [3, 7] [%] | % Inhibition of Edema ± Standard Error [3, 8] [%] | % Incidence of Ulcer Divided by 10 [4] | Average Severity of Ulcer [4] | Average of Ulcer Number [4] | Number of Animals with Ulcer [4] | further results
COc1ccc2c(c1)c(CC(=O)OCc1cn(-c3ccccc3OC)nn1)c(C)n2C(=O)c1ccc(Cl)cc1 [Compound 8e, (1-(2-Methoxyphenyl)-1H-1,2,3-triazol-4-yl)methyl 2-(1-(4-chlorobenzoyl)-5-methoxy-2-methyl-1H-indol-3-yl)acetate] | 80.8 | 112.5 | 7.7 ± 1.3 | 69.2 | 11.30 ± 1.1 | 82.0 | 13.23 ± 1.6 | 27.5 | 11.36 ± 2.5 | 28.9 | 11.61 ± 2.2 | 51.2 | 0.00 ± 0.2 | 6.5 ± 1.0 | 4.2 ± 1.9 | 0.00 ± 0.3 | – | – | – | – | –
COc1ccc(-n2cc(COC(=O)Cc3c(C)n(C(=O)c4ccc(Cl)cc4)c4ccc(OC)cc34)nn2)cc1 [Compound 8f, (1-(4-Methoxyphenyl)-1H-1,2,3-triazol-4-yl)methyl 2-(1-(4-chlorobenzoyl)-5-methoxy-2-methyl-1H-indol-3-yl)acetate] | 66.8 | 93.0 | 13.3 ± 1.9 | 66.3 | 11.11 ± 1.6 | 92.4 | 13.99 ± 1.9 | 68.4 | 15.00 ± 2.5 | 66.5 | 15.00 ± 2.6 | 117.7 | – | – | – | – | – | – | – | – | anti-inflammatory efficacy (in words) ([3]; carrageenan-induced rat paw edema): no anti-inflammatory efficacy
COc1ccc2c(c1)c(CC(=O)OCc1cn(-c3ccc([N+](=O)[O-])cc3)nn1)c(C)n2C(=O)c1ccc(Cl)cc1 [Compound 8g, (1-(4-Nitrophenyl)-1H-1,2,3-triazol-4-yl)methyl 2-(1-(4-chlorobenzoyl)-5-methoxy-2-methyl-1H-indol-3-yl)acetate] | 96.3 | 134.1 | 1.5 ± 0.4 | 56.6 | 10.46 ± 2.4 | 45.4 | 10.57 ± 2.7 | 41.2 | 12.58 ± 2.0 | 2.7 | 9.25 ± 2.3 | 4.8 | 20.0 ± 0.7 | – | – | 0.00 ± 1.2 | – | – | – | – | –
CC(C)Cc1ccc(C(C)C(=O)O)cc1 (stereo not drawn) [Ibu, Ibuprofen, reference compound] | 58.5 | 81.5 | 16.6 ± 0.7 | 61.7 | 10.80 ± 0.8 | 51.3 | 11.00 ± 1.3 | 33.6 | 11.90 ± 1.5 | 54.3 | 13.90 ± 2.2 | 96.1 | 44.4 ± 2.5 | 43.5 ± 2.9 | 21.0 ± 1.1 | – | 3.33 | 0.67 | 0.33 | 2/6 | % Inhibition of Edema ± Standard Error ([3]; 3 h, 10 mg/kg indomethacin mol equivalent i.p.): 78.8 ± 0.9%; % Inhibition of Edema ± Standard Error [3, 9]: 11.2 ± 0.6%; % Inhibition of Edema ± Standard Error ([3]; 24 h, 10 mg/kg indomethacin mol equivalent i.p., listed as ibuprofen, 10 mg/kg): 11.2%; Mean Edema Thickness ([3]; 24 h, 10 mg/kg indomethacin mol equivalent i.p., ± standard error): 0.817 ± 0.07 mm; % Potency [3]: 97.2%
COc1ccc2c(c1)c(CC(=O)O)c(C)n2C(=O)c1ccc(Cl)cc1 [Indo, Indomethacin, reference compound] | 71.8 | 100.0 | 11.3 ± 1.6 | 87.1 | 12.50 ± 2.0 | 80.9 | 13.15 ± 1.6 | 57.9 | 14.07 ± 1.2 | 56.5 | 14.10 ± 1.9 | 100 | – | – | – | – | 10 | 1.67 | 2 | 6/6 | Potency ([1]; listed as indomethacin): 100%; % Inhibition of Edema ± Standard Error [3, 9]: 12.0 ± 2.1%; % Inhibition of Edema ± Standard Error ([3]; 24 h, 10 mg/kg indomethacin mol equivalent i.p., listed as indomethacin, 10 mg/kg): 12.0%; % Potency [3]: 100%
